Structures are written as SMILES. Calls of active or inactive are those of the source. The rule behind the calls is not given here.

For this data set, the system named is CCRIS mutagenicity, Ames/micronucleus/aberration tests. Kind of data set: CCRIS mutagenicity studies.
Setting [1] is: Test System: AMES SALMONELLA TYPHIMURIUM, Strain/Indicator: TA98, Metabolic Activation: NONE, Method: PREINCUBATION
[2] abbreviates: Test System: AMES SALMONELLA TYPHIMURIUM, Strain/Indicator: TA100, Metabolic Activation: NONE, Method: PREINCUBATION

In the case of `CC(C)CO`, the mutagenic call is “inactive; negative” (Test System: AMES SALMONELLA TYPHIMURIUM, Strain/Indicator: TA97, Metabolic Activation: HAMSTER, LIVER, S-9, AROCLOR 1254 (10 OR 30%), Method: PREINCUBATION); “inactive; negative” (Test System: AMES SALMONELLA TYPHIMURIUM, Strain/Indicator: TA97, Metabolic Activation: NONE, Method: PREINCUBATION); “inactive; negative” (Test System: AMES SALMONELLA TYPHIMURIUM, Strain/Indicator: TA97, Metabolic Activation: RAT, LIVER, S-9, AROCLOR 1254 (10 OR 30%), Method: PREINCUBATION); “inactive; negative” (Test System: AMES SALMONELLA TYPHIMURIUM, Strain/Indicator: TA98, Metabolic Activation: HAMSTER, LIVER, S-9, AROCLOR 1254 (10 OR 30%), Method: PREINCUBATION); “inactive; negative” under setting [1]; “inactive; negative” (Test System: AMES SALMONELLA TYPHIMURIUM, Strain/Indicator: TA98, Metabolic Activation: RAT, LIVER, S-9, AROCLOR 1254 (10 OR 30%), Method: PREINCUBATION). For the same compound, the mutagenic call is “inactive; negative” (Test System: AMES SALMONELLA TYPHIMURIUM, Strain/Indicator: TA98, Metabolic Activation: RAT, LIVER, S-9, KC 500, Method: PREINCUBATION); “inactive; negative” (Test System: AMES SALMONELLA TYPHIMURIUM, Strain/Indicator: TA100, Metabolic Activation: HAMSTER, LIVER, S-9, AROCLOR 1254 (10 OR 30%), Method: PREINCUBATION); “inactive; negative” under setting [2]; “inactive; negative” (Test System: AMES SALMONELLA TYPHIMURIUM, Strain/Indicator: TA100, Metabolic Activation: RAT, LIVER, S-9, AROCLOR 1254 (10 OR 30%), Method: PREINCUBATION); “inactive; negative” (Test System: AMES SALMONELLA TYPHIMURIUM, Strain/Indicator: TA100, Metabolic Activation: RAT, LIVER, S-9, KC 500, Method: PREINCUBATION); “inactive; negative” (Test System: AMES SALMONELLA TYPHIMURIUM, Strain/Indicator: TA1535, Metabolic Activation: HAMSTER, LIVER, S-9, AROCLOR 1254 (10 OR 30%), Method: PREINCUBATION). Moreover, the mutagenic call runs as follows: (Test System: AMES SALMONELLA TYPHIMURIUM, Strain/Indicator: TA1535, Metabolic Activation: NONE, Method: PREINCUBATION) “inactive; negative”; (Test System: AMES SALMONELLA TYPHIMURIUM, Strain/Indicator: TA1535, Metabolic Activation: RAT, LIVER, S-9, AROCLOR 1254 (10 OR 30%), Method: PREINCUBATION) “inactive; negative”; (Test System: AMES SALMONELLA TYPHIMURIUM, Strain/Indicator: TA1535, Metabolic Activation: RAT, LIVER, S-9, KC 500, Method: PREINCUBATION) “inactive; negative”; (Test System: AMES SALMONELLA TYPHIMURIUM, Strain/Indicator: TA1537, Metabolic Activation: HAMSTER, LIVER, S-9, AROCLOR 1254 (30%), Method: PREINCUBATION) “inactive; negative”; (Test System: AMES SALMONELLA TYPHIMURIUM, Strain/Indicator: TA1537, Metabolic Activation: NONE, Method: PREINCUBATION) “inactive; negative”; (Test System: AMES SALMONELLA TYPHIMURIUM, Strain/Indicator: TA1537, Metabolic Activation: RAT, LIVER, S-9, AROCLOR 1254 (30%), Method: PREINCUBATION) “inactive; negative”. Also, the mutagenic call (Test System: AMES SALMONELLA TYPHIMURIUM, Strain/Indicator: TA1537, Metabolic Activation: RAT, LIVER, S-9, KC 500, Method: PREINCUBATION) was “inactive; negative”; the mutagenic call (Test System: AMES SALMONELLA TYPHIMURIUM, Strain/Indicator: TA1538, Metabolic Activation: NONE, Method: PREINCUBATION) was “inactive; negative”; the mutagenic call (Test System: AMES SALMONELLA TYPHIMURIUM, Strain/Indicator: TA1538, Metabolic Activation: RAT, LIVER, S-9, KC 500, Method: PREINCUBATION) is “inactive; negative”; the mutagenic call (Test System: Ames Salmonella typhimurium, Strain/Indicator: TA98, Metabolic Activation: None, Method: Preincubation) was “inactive; negative”; the mutagenic call (Test System: Ames Salmonella typhimurium, Strain/Indicator: TA98, Metabolic Activation: Rat, Liver, S-9, Phenobarbital and 5,6-benzoflavone, Method: Preincubation) was “inactive; negative”; the mutagenic call (Test System: Ames Salmonella typhimurium, Strain/Indicator: TA100, Metabolic Activation: None, Method: Preincubation) is “inactive; negative”. Also, the mutagenic call is “inactive; negative” (Test System: Ames Salmonella typhimurium, Strain/Indicator: TA100, Metabolic Activation: Rat, Liver, S-9, Phenobarbital and 5,6-benzoflavone, Method: Preincubation); “inactive; negative” (Test System: Ames Salmonella typhimurium, Strain/Indicator: TA1535, Metabolic Activation: None, Method: Preincubation); “inactive; negative” (Test System: Ames Salmonella typhimurium, Strain/Indicator: TA1535, Metabolic Activation: Rat, Liver, S-9, Phenobarbital and 5,6-benzoflavone, Method: Preincubation); “inactive; negative” (Test System: Ames Salmonella typhimurium, Strain/Indicator: TA1537, Metabolic Activation: None, Method: Preincubation); “inactive; negative” (Test System: Ames Salmonella typhimurium, Strain/Indicator: TA1537, Metabolic Activation: Rat, Liver, S-9, Phenobarbital and 5,6-benzoflavone, Method: Preincubation); “inactive; negative” (Test System: CHINESE HAMSTER V-79, Strain/Indicator: V-79 (HPRT)/6-THIOGUANINE, Metabolic Activation: NONE, Method: STANDARD PLATE). Moreover, the mutagenic call is, setting by setting: (Test System: CHINESE HAMSTER V-79, Strain/Indicator: V-79 (HPRT)/6-THIOGUANINE, Metabolic Activation: RAT LIVER S-9, Method: STANDARD PLATE) “inactive; negative”; (Test System: E. COLI, Strain/Indicator: WP2 UVRA, Metabolic Activation: NONE, Method: PREINCUBATION) “inactive; negative”; (Test System: E. COLI, Strain/Indicator: WP2 UVRA, Metabolic Activation: RAT, LIVER, S-9, KC 500, Method: PREINCUBATION) “inactive; negative”; (Test System: E. coli, Strain/Indicator: WP2uvrA/pKM101, Metabolic Activation: None, Method: Preincubation) “inactive; negative”; (Test System: E. coli, Strain/Indicator: WP2uvrA/pKM101, Metabolic Activation: Rat, Liver, S-9, Phenobarbital and 5,6-benzoflavone, Method: Preincubation) “inactive; negative”.

In the case of `O=c1c(O)c(-c2ccccc2)oc2cc(O)cc(O)c12`, the mutagenic call runs as follows: under setting [2], “inactive; negative”; (Test System: AMES SALMONELLA TYPHIMURIUM, Strain/Indicator: TA100, Metabolic Activation: RAT LIVER S-9, AROCLOR 1254, Method: PREINCUBATION) “inactive; negative”.

`O=C/C(CCl)=C(/Cl)C(=O)O`: the mutagenic call is “active; positive” under setting [1]; “active; positive” under setting [2]; “active; positive” (Test System: AMES SALMONELLA TYPHIMURIUM, Strain/Indicator: TA104, Metabolic Activation: NONE, Method: PREINCUBATION).

Values taken from PubChem BioAssay AID1259407 (Chemical Carcinogenesis Research Information System (CCRIS), 2018).
